Entries after “also recorded” stand apart in the source; their conditions may differ. Read-outs that look alike come from different tables or passages of the source.
Columns and labels:
[1] = target: T1, Corticosteroid Binding Globulin (CBG), transcortin (Homo sapiens, UniProt P08185); details: cited from earlier work; for Class: CBG binding activity class; for Log 1/K: CBG binding affinity, literature data
T1 sequence (P08185 23-405): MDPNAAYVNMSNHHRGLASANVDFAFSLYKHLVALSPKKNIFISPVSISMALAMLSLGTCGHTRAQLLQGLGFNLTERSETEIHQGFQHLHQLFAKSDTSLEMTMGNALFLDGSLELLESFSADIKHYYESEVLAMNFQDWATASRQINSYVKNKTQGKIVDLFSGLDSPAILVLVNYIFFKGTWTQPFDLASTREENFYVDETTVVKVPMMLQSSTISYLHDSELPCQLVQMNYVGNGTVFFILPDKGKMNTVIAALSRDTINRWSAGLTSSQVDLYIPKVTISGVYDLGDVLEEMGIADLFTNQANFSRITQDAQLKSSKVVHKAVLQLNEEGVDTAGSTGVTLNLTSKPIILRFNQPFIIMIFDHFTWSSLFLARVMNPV

[2] = test system: forearms of human volunteers; test: Human vasoconstriction (blanching) testing; type: in vivo; design: key to Vasoconstriction activity (total score of 4 tests): sum of 4 tests, each 0 = normal skin to 4 = very intense pallor
Method: Solutions of LE, HC and PRN (0.1 or 1 mM) alone, or mixtures of LE and HC (0.1+0.1 mM, or 1+1 mM), or LE and PRN (0.1+0.1 mM, or 1+1 mM) were prepared with a vehicle containing absolute ethanol and propylene glycol (9:1). […] After evaporation of ethanol (20 min), the films were applied to the forearms of human volunteers for 4 hours. Subsequently, the vasoconstriction reaction was read and judged by the appearance of pallor at various time intervals after the removal of the discs and films. The grading scale was as follows: 0, normal skin; 1, slight pallor; 2, pallor with at least two corners outlined; 3, even pallor with a clear outlined of the application sites; 4, very intense pallor. Due to the relatively high variations in response between the volunteers, a total score of 4 tests at each time point was taken for the activity evaluation.

transcortin (CBG) = target: T2, transcortin (CBG) (Homo sapiens, UniProt P08185); test: Binding of corticosteroids to transcortin: 3H-cortisol competition in charcoal-treated diluted plasma
T2 construct: from tissue; host or cells: plasma from venous blood of healthy volunteers, charcoal-treated, diluted 100-fold
T2 sequence (P08185 23-405): T1 sequence (P08185 23-405)
Method: Experimental procedure: Venous blood was collected from healthy volunteers into heparin-containing tubes (5 Us/100 ml serum) and cells were separated from plasma by centrifugation (1500 g for 15 min). […] Charcoal-treated plasma was diluted 100-fold with binding buffer (10 mM Tris-HCl; 2 mM DTT (dithiotreitol); 1.5 mM EDTA; 0.02 M Na2MoO4; 10% Glycerol; pH 7.4) and was stored aliquoted at −80° C. […] The assay ingredients were mixed and the tubes were incubated for 1 hour on ice. At the end of the incubation, 0.2 ml of charcoal suspension (0.5% Norit A and 0.05% BSA) was added to each tube. The tubes were briefly agitated and incubated for an additional 10 min at 0° C. They were then centrifuged for 10 min at 15 000 g, and the same aliquots from the clear supernatants were quantitatively decanted into counting vials and combined with 3 ml of toluene-based scintillation fluid. […] Specific binding and IC50-values were calculated.

[3] = estimated, unpublished results Bodor, Kurucz 2006, read-out: CBG Est. IC50
[4] = 3 nM 3H-cortisol, 1 hour on ice, plasma diluted 100-fold, read-out: IC50-values (nM) average ± SEM (n)

In the case of CC(=O)[C@@]1(O)CC[C@H]2[C@@H]3CCC4=CC(=O)CC[C@]4(C)[C@H]3CC[C@@]21C [17α-hydroxyprogesterone], the Class [1] is given as 1 and the “Log 1/K” value [1] is given as −7.740.
For CC(=O)[C@H]1[C@H](C)C[C@H]2[C@@H]3CCC4=CC(=O)CC[C@]4(C)[C@H]3CC[C@@]21C [16α-methylprogesterone], the Class [1] is listed as 1 and the “Log 1/K” value [1] is listed as −7.120.
For CC(=O)OCC(=O)[C@@]1(O)CC[C@H]2[C@@H]3CCC4=CC(=O)CC[C@]4(C)[C@H]3[C@@H](O)C[C@@]21C [cortisolacetat], the Class [1] is given as 1 and the “Log 1/K” value [1] is given as −7.553.
In the case of C[C@]12CC[C@H]3[C@@H](CCC4=CC(=O)CC[C@@]43C)[C@@H]1CC[C@@H]2O [testosterone], the Class [1] is listed as 2 and the “Log 1/K” value [1] is listed as −6.724.
For CC1CC2(C)C(=CC1=O)CCC1C2C(O)CC2(C)C1CCC2(O)C(=O)CO (stereo not drawn) [2α-methylcortisol], the Class [1] is given as 1 and the “Log 1/K” value [1] is given as −7.688.
For C[C@]12C=CC(=O)C=C1CCC1C2[C@@H](O)C[C@@]2(C)C1CC[C@]2(O)C(=O)CO (stereo partly drawn) [Prednisolone, prednisolone], the Class [1] is given as 1, the “Vasoconstriction activity (total score of 4 tests)” value ([2]; 0.1 mM, 2 hr after removal, 4 h application) is given as 0 and the “Vasoconstriction activity (total score of 4 tests)” value ([2]; 0.1 mM, 4 hr after removal) is given as 0. The “Vasoconstriction activity (total score of 4 tests)” value ([2]; 0.1 mM, 6 hr after removal) was 0, the “Vasoconstriction activity (total score of 4 tests)” value ([2]; 0.1 mM, 8 hr after removal) was 0 and the “Vasoconstriction activity (total score of 4 tests)” value ([2]; 0.1 mM, 10 hr after removal) was 0. For the same compound, the “Vasoconstriction activity (total score of 4 tests)” value ([2]; 0.1 mM, 16 hr after removal) was 0, the “Vasoconstriction activity (total score of 4 tests)” value ([2]; 0.1 mM, 18 hr after removal) was 0 and the “Vasoconstriction activity (total score of 4 tests)” value ([2]; 0.1 mM, 24 hr after removal) was 0. For the same compound, the “Vasoconstriction activity (total score of 4 tests)” value ([2]; 1 mM, 2 hr after removal, 4 h application) was 0, the “Vasoconstriction activity (total score of 4 tests)” value ([2]; 1 mM, 4 hr after removal) was 0 and the “Vasoconstriction activity (total score of 4 tests)” value ([2]; 1 mM, 6 hr after removal) was 0. For the same compound, the “Vasoconstriction activity (total score of 4 tests)” value ([2]; 1 mM, 8 hr after removal) was 0, the “Vasoconstriction activity (total score of 4 tests)” value ([2]; 1 mM, 10 hr after removal) was 0 and the “Vasoconstriction activity (total score of 4 tests)” value ([2]; 1 mM, 16 hr after removal) was 0. For the same compound, the “Vasoconstriction activity (total score of 4 tests)” value ([2]; 1 mM, 18 hr after removal) was 0, the “Vasoconstriction activity (total score of 4 tests)” value ([2]; 1 mM, 24 hr after removal) was 0 and the “Vasoconstriction activity alone (in words)” value ([2]; by itself, concentration range 0.1 to 1 mM, human skin, listed as PRN) was “do not yield any detectable activity; also recorded: no activity”. The IC50 (transcortin (CBG); CBG Est. IC50 (nM), estimated, unpublished results Bodor, Kurucz 2006) was 7 nM and the IC50 (transcortin (CBG); IC50-values (nM) average ± SEM (n), 3 nM 3H-cortisol, 1 hour on ice, plasma diluted 100-fold) was 6.7 ± 1.6 nM.
C[C@]12C=CC(=O)C=C1CC[C@@H]1[C@@H]2[C@@H](O)C[C@@]2(C)[C@H]1C[C@H]1O[C@@H](C3CCCCC3)O[C@]12C(=O)CO [Ciclesonide, act. metab.] gave an IC50 (transcortin (CBG); [3]) of over 10000 nM.
In the case of CC(=O)[C@H]1CC[C@H]2[C@@H]3CC=C4C[C@@H](O)CC[C@]4(C)[C@H]3CC[C@]12C [pregnenolone], the Class [1] is listed as 3 and the “Log 1/K” value [1] is listed as −5.225.
For CC(=O)[C@@]1(O)CC[C@H]2[C@@H]3CC=C4C[C@@H](O)CC[C@]4(C)[C@H]3CC[C@@]21C [17α-hydroxypregnenolone], the Class [1] is given as 3 and the “Log 1/K” value [1] is given as −5.000.
For C[C@]12CCC(=O)C=C1CC[C@@H]1[C@@H]2CC[C@]2(C)C(=O)CC[C@@H]12 [4-androstenedione], the Class [1] is given as 3 and the “Log 1/K” value [1] is given as −5.763.
In the case of C[C@]12CCC(O)C[C@@H]1CC[C@@H]1[C@@H]2CC[C@]2(C)[C@@H](O)CC[C@@H]12 (stereo partly drawn) [androstanediol], the Class [1] is listed as 3 and the “Log 1/K” value [1] is listed as −5.000.
In the case of C[C@]12CCC(=O)C=C1CC[C@@H]1[C@@H]2[C@@H](O)C[C@]2(C=O)[C@@H](C(=O)CO)CC[C@@H]12 [aldosterone], the Class [1] is given as 2 and the “Log 1/K” value [1] is given as −6.279.
For C[C@@H]1C[C@@]2(C)C(=CC1=O)CC[C@H]1[C@@H]3CC[C@](O)(C(=O)CO)[C@@]3(C)C[C@H](O)[C@@]12F [2α-methyl-9α-fluoro-cortisol], the Class [1] is listed as 2 and the “Log 1/K” value [1] is listed as −5.797.
For C[C@]12CC[C@@H]3c4ccc(O)cc4CC[C@H]3[C@@H]1C[C@@H](O)[C@@H]2O [estriol], the Class [1] is listed as 3 and the “Log 1/K” value [1] is listed as −5.000.
For C[C@]12CC[C@H]3[C@@H](CCC4=CC(=O)CC[C@@H]43)[C@@H]1CC[C@@H]2O [19-nortestosterone], the Class [1] is given as 2 and the “Log 1/K” value [1] is given as −6.144.
C[C@]12C=CC(=O)C=C1CCC1C2C(=O)C[C@@]2(C)C1CC[C@]2(O)C(=O)CO (stereo partly drawn) [Prednisone, prednisone] gave an IC50 (transcortin (CBG); [4]) of 36 ± 11 nM.
In the case of C[C@]12CC[C@H](O)CC1=CC[C@@H]1[C@@H]2CC[C@]2(C)C(=O)CC[C@@H]12 [dehydroepiandrosterone], the Class [1] is listed as 3 and the “Log 1/K” value [1] is listed as −5.000.
For COC(=O)[C@@]1(O)CCC2C3CCC4=CC(=O)CC[C@]4(C)C3[C@@H](O)C[C@@]21C (stereo partly drawn) [CA-Me GYKI-25806], the IC50 (transcortin (CBG); [4]) was 5.9 ± 1.4 nM.
For CC(=O)[C@@]1(O)[C@H](O)C[C@H]2[C@@H]3CCC4=CC(=O)CC[C@]4(C)[C@H]3CC[C@@]21C [16α,17α-dihydroxyprogesterone], the Class [1] is listed as 2 and the “Log 1/K” value [1] is listed as −6.247.
In the case of C[C@@H]1C[C@H]2[C@@H]3CCC4=CC(=O)C=C[C@]4(C)[C@@]3(Cl)[C@@H](O)C[C@]2(C)[C@@]1(OC(=O)c1ccco1)C(=O)CCl [Mometasone furoate], the IC50 (transcortin (CBG); [3]) is reported as over 10000 nM.
For CC(=O)[C@H]1CC[C@H]2[C@@H]3CCC4=CC(=O)CC[C@]4(C)[C@H]3C(=O)C[C@]12C [4-pregnene-3,11,20-trione], the Class [1] is listed as 2 and the “Log 1/K” value [1] is listed as −6.779.
In the case of C[C@]12C[C@@H](O)[C@H]3[C@@H](CCC4=CC(=O)CC[C@@]43C)[C@@H]1CC[C@@H]2C(=O)CO [epicorticosterone], the Class [1] is given as 1 and the “Log 1/K” value [1] is given as −7.200.
In the case of CC(=O)[C@H]1CC[C@H]2[C@@H]3CCC4=CC(=O)CC[C@]4(C)[C@H]3CC[C@]12C [progesterone], the Class [1] is given as 1 and the “Log 1/K” value [1] is given as −7.380.
In the case of C[C@]12CCC(=O)C=C1CC[C@@H]1[C@@H]2C(=O)C[C@@]2(C)[C@H]1CC[C@]2(O)C(=O)CO [cortisone], the Class [1] is given as 2 and the “Log 1/K” value [1] is given as −6.892.
Compound CCCC1O[C@@H]2C[C@H]3[C@@H]4CCC5=CC(=O)C=C[C@]5(C)[C@H]4[C@@H](O)C[C@]3(C)[C@]2(C(=O)CO)O1 (stereo partly drawn) [budesonide (BUD), budesonide] has an IC50 (transcortin (CBG); [3]) of over 10000 nM.
For C[C@]12CCC(=O)C=C1CC[C@@H]1[C@@H]2CC[C@@]2(C)[C@H]1CC[C@]2(O)C(=O)CO [11-deoxycortisol], the Class [1] is given as 1 and the “Log 1/K” value [1] is given as −7.881.
For CC(=O)[C@H]1CC[C@H]2[C@@H]3CCC4=CC(=O)CC[C@@H]4[C@H]3CC[C@]12C [19-norprogesterone], the Class [1] is listed as 2 and the “Log 1/K” value [1] is listed as −6.817.
For C[C@]12CC[C@H]3[C@@H](CCC4=CC(=O)CC[C@@]43C)[C@@H]1CC[C@@H]2C(=O)CO [11-deoxycorticosterone], the Class [1] is given as 1 and the “Log 1/K” value [1] is given as −7.653.
